# In patent publication US20100105655A1, “NOVEL COMPOUNDS 515” (ASTRAZENECA AB, priority 2008, published 2010):
# Columns and labels:
# human IGF1R = target: T1, human IGF1R (Homo sapiens, UniProt P08069); assay: Inhibition of insulin-like growth factor-1 receptor phosphorylation (immunofluorescence end point cell assay, R+ cells); type: cell-based; conditions: R+ cells stimulated with 30 nM IGF1
# T1 construct: expressed in transfected cells; host or cells: R+ cells (R- mouse fibroblasts transfected with human IGF1R)
# Experimental: This immunofluorescence end point cell assay measures the ability of a test compound to reduce the measured levels of IGF phosphorylation after IGF1 stimulation in R^+ cells. R^+ cells are derived by transfection of R^− mouse fibroblast cells with human IGF1R. R^+ cells are routinely cultured in DMEM growth medium (Gibco BRL, 41966) containing 2 mM L-Glutamine (Invitrogen Code no. 25030-024) and 10% (v/v) foetal bovine serum (FBS)) in a 5% CO2 air incubator at 37° C.
# To undertake the assay, the R^+ cells are seeded at 5×10^3 cells/well in DMEM plus 1% foetal calf serum, 1% L-glutamine in 96-well black Packard View plates (PerkinElmer 6005182) and incubated at 37° C. (+5% CO2) in a humidified incubator. […]
# Following the compound treatment, the R^+ cells are stimulated with a final concentration of 30 nM IGF1 (Gropep IM001) for 20 minutes at 37° C. […] Additionally, in-house antibodies raised against phospho IGF1R were also used at a suitable titre determined for each batch. […]
# The Green Fluorescent phospho IGF1R-associated signal in each well was measured using an Acumen Explorer HTS Reader (TTP Labtech Ltd., Cambridge). Phospho IGF1R-associated fluorescence emission can be detected at 530 nm following excitation at 488 nm. […] These fluorescent objects can be quantified and provide a measure of the phospho IGF1R levels in cells. […]
# IGFR kinase = target: T2, IGFR kinase (Homo sapiens, UniProt P08069); assay: Enzyme assay (c), IGFR kinase, Caliper LabChip; type: biochemical; conditions: 30 nM IGFR kinase, 6 uM ATP, 3 uM peptide mix; read-out: IGFR IC50
# T2 construct: purchased Millipore
# T2 sequence (P08069 31-1367): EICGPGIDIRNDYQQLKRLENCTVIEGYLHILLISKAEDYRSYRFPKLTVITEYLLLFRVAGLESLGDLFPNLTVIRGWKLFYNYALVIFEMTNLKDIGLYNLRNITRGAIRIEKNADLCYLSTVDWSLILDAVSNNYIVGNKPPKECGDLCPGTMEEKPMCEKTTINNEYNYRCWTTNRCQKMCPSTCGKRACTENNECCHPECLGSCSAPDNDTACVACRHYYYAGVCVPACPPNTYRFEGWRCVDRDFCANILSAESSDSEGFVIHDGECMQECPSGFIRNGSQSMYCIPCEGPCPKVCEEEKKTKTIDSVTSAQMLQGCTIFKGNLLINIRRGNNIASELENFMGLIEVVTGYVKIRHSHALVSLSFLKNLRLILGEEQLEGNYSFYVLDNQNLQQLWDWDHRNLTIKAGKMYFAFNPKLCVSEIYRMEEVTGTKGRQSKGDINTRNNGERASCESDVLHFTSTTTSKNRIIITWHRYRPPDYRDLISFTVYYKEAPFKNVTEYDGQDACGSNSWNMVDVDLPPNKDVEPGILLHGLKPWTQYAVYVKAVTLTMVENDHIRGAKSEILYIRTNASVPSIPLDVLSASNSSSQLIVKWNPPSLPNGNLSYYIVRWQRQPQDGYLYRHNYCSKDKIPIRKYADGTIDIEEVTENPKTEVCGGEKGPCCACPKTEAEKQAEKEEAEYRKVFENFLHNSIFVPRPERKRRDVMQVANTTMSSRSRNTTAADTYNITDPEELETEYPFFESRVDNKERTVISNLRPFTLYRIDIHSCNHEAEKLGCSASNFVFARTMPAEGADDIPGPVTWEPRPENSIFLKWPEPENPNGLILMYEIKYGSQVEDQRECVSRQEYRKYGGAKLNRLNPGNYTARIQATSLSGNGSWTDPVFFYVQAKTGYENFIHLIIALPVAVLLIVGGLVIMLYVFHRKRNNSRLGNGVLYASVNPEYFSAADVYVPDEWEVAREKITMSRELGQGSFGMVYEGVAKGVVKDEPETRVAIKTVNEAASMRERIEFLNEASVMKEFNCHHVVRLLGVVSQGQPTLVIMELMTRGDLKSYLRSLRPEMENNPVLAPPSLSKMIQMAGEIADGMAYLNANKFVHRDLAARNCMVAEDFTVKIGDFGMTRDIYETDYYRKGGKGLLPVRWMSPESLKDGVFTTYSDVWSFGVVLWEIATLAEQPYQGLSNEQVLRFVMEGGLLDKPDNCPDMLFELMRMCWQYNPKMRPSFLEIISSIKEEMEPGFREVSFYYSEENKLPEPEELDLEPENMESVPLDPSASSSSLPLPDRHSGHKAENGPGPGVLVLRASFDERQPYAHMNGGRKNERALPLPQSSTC
# T1 sequence (P08069 31-1367): as above
IC50 (human IGF1R),IC50 (IGFR kinase),melting point,SMILES
4 nM,,,"COc1cc(N2CC(C)NC(C)C2)ccc1Nc1ncc(Cl)c(-c2cnc3ccccn23)n1 (centres unmarked) [5-chloro-N-[4-(3,5-dimethylpiperazin-1-yl)-2-methoxy-phenyl]-4-imidazo[1,2-a]pyridin-3-yl-pyrimidin-2-amine]"
,30 nM,~ 171.3 °C,"COc1cc(N2CCN(CCO)CC2)ccc1Nc1ncc(F)c(-c2cnc3ccccn23)n1 [Example 81, 2-[4-[4-[(5-fluoro-4-imidazo[1,2-a]pyridin-3-yl-pyrimidin-2-yl)amino]-3-methoxy-phenyl]piperazin-1-yl]ethanol]"
,12 nM,,"COc1cc(OC[C@H]2CCCN2)ccc1Nc1ncc(Cl)c(-c2cnc3ccccn23)n1 [Example 6.1, 5-chloro-4-imidazo[1,2-a]pyridin-3-yl-N-[2-methoxy-4-[[(2R)-pyrrolidin-2-yl]methoxy]phenyl]pyrimidin-2-amine]"
,67 nM,,"COc1cc(N2CCN(C(C)=O)CC2)ccc1Nc1ncc(F)c(-c2cnn3ccccc23)n1 [Example 170, 1-[4-[4-[(5-fluoro-4-pyrazolo[1,5-a]pyridin-3-yl-pyrimidin-2-yl)amino]-3-methoxy-phenyl]piperazin-1-yl]ethanone]"
,30 nM,,"COc1cc(N2CC3CN(C(=O)CN)CC(C2)O3)ccc1Nc1ncc(Cl)c(-c2cnc3c(F)cccn23)n1 [Example 209, 2-amino-1-[7-[4-[[5-chloro-4-(8-fluoroimidazo[1,2-a]pyridin-3-yl)pyrimidin-2-yl]amino]-3-methoxy-phenyl]-9-oxa-3,7-diazabicyclo[3.3.1]nonan-3-yl]ethanone]"
,12 nM,,"COc1cc(C2CCN(C(=O)[C@H](C)O)CC2)ccc1Nc1ncc(Cl)c(-c2cnn3ccccc23)n1 [Example 139, (2S)-1-[4-[4-[(5-chloro-4-pyrazolo[1,5-a]pyridin-3-yl-pyrimidin-2-yl)amino]-3-methoxy-phenyl]-1-piperidyl]-2-hydroxy-propan-1-one]"
,7 nM,,"COc1cc(N2CC3CN(CCO)CC(C2)O3)ccc1Nc1ncc(Cl)c(-c2cnc3c(F)cccn23)n1 [Example 184, 2-[7-[4-[[5-chloro-4-(8-fluoroimidazo[1,2-a]pyridin-3-yl)pyrimidin-2-yl]amino]-3-methoxy-phenyl]-9-oxa-3,7-diazabicyclo[3.3.1]nonan-3-yl]ethanol]"
